Assay results: patent US20240270762A1, “PENICILLIN-BINDING PROTEIN INHIBITORS” (priority 2021, published 2024)
In brackets after ≈: the same amount, converted by molar mass.

How the values were obtained:
[1] = test system: N. gonorrhoeae CDC-0197; assay: Liquid broth MIC in Fastidious broth; conditions: Neisseria gonorrhoeae, CDC0197, read-out: Minimum Inhibitory Concentration (MIC), N. gonorrhoeae CDC-0197
Experimental: ATCC 49226, FA1090, MS11, WHO G, WHO L, and WHO M produce wild type or wild-type like PBP2. WHO K, WHO X, WHO Z, WHO Q, and CDC-0197 produce mosaic PBP2. Liquid broth-based assays were used for antibacterial testing of PBP inhibitors in Neisseria gonorrhoeae. Briefly, cryo-preserved bacterial cultures of clinical strains were streaked for isolation on Chocolate Agar (72 g/L (2×) GC Agar Base (BD #228950) and 2% (2×) Hemoglobin was autoclaved at 121° C. for 20 minutes to sterilize. Once cooled to ˜50° C. the 2×GC Agar Base and 2× Hemoglobin solutions are combined and 1% IsoVitaleX Enrichment (BD #211876) was added to the solution). Strains were incubated at 36° C. and 5% CO2 to allow growth of colonies, 24 hours before inoculum preparation. 2-fold serial dilutions of test compounds were conducted in a 96 well plate with a final volume of 75 μL per well at 2-fold the final desired concentration in Fastidious broth (Remel #R07664). For preparation of assay inoculum, a direct suspension was prepared by aseptically swabbing 10-15 colonies from agar plates into culture tubes containing 2 mL of fresh sterile saline. After the dilution plates were set up, direct suspensions were then diluted in a cuvette containing sterile saline and the optical density was measured at 600 nm. Inocula were diluted such that 75 μL of this culture in Fastidious broth results in a starting bacterial concentration of 5×10^5 CFU/mL when added to the dilution plates. The plates were incubated for ˜24 hours at 36° C. and 5% CO2.

[2] = test system: N. gonorrhoeae ATCC 49226; assay: Liquid broth MIC in Fastidious broth; conditions: Neisseria gonorrhoeae, ATCC49226, read-out: Minimum Inhibitory Concentration (MIC), N. gonorrhoeae ATCC 49226
[3] = test system: N. gonorrhoeae WHO Q; assay: Liquid broth MIC in Fastidious broth; conditions: Neisseria gonorrhoeae, read-out: Minimum Inhibitory Concentration (MIC), N. gonorrhoeae WHO Q
[4] = target: T1, PBP3 from Pseudomonas aeruginosa (PAO1) (Pseudomonas aeruginosa, UniProt G3XD46); assay: Bocillin-FL fluorescence polarization competition binding, P. aeruginosa PBP3; conditions: Binding affinity to P. aeruginosa PBP3; fluorescence polarization competition binding assay using Bocillin-FL; read-out: P. aeruginosa PBP3 Potency
T1 construct: made in house
Summary of the method: (§1)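 Purified PBPs pre-incubated with inhibitor (E. coli PBP3 1.5 μM, 30 min; P. aeruginosa PBP3 0.75 μM, A. baumannii PBP1a 1 μM and PBP3 0.2 μM, 15 min), then Bocillin-FL 0.1 μM (0.05 μM for PBP1a) added; FP read up to 60 min. EC50 = concentration halving bound Bocillin-FL.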

[5] = test system: N. gonorrhoeae WHO L; assay: Liquid broth MIC in Fastidious broth; conditions: Neisseria gonorrhoeae, read-out: Minimum Inhibitory Concentration (MIC), N. gonorrhoeae WHO L
[6] = test system: N. gonorrhoeae WHO G; assay: Liquid broth MIC in Fastidious broth; conditions: Neisseria gonorrhoeae, read-out: Minimum Inhibitory Concentration (MIC), N. gonorrhoeae WHO G
[7] = test system: E. coli AG100A; assay: Broth microdilution MIC in CAMHB; assay type: cell-based; conditions: Escherichia coli, read-out: MIC E. coli AG100A
[8] = target: T2, PBP3 from Escherichia coli (K-12) (Escherichia coli, UniProt P0AD68); assay: Bocillin-FL fluorescence polarization competition binding, E. coli PBP3
T2 construct: made in house
Summary of the method: as §1

T2 sequence (P0AD68 1-577): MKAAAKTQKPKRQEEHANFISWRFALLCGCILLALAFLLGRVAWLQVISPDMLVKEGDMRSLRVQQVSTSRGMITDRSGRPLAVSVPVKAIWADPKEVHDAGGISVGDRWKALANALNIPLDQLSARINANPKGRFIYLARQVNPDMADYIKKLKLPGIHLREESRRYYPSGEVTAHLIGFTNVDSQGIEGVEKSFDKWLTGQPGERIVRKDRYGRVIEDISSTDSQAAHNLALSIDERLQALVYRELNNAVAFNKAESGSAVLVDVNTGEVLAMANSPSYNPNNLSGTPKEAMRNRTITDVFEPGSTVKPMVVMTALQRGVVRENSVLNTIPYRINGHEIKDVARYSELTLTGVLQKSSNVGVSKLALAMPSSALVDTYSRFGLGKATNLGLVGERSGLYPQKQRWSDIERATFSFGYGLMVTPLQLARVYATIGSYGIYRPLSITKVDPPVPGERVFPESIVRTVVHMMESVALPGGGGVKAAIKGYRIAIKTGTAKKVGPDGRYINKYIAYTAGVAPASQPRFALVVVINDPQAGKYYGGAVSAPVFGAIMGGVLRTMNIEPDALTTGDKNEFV
T1 sequence (G3XD46 whole entry): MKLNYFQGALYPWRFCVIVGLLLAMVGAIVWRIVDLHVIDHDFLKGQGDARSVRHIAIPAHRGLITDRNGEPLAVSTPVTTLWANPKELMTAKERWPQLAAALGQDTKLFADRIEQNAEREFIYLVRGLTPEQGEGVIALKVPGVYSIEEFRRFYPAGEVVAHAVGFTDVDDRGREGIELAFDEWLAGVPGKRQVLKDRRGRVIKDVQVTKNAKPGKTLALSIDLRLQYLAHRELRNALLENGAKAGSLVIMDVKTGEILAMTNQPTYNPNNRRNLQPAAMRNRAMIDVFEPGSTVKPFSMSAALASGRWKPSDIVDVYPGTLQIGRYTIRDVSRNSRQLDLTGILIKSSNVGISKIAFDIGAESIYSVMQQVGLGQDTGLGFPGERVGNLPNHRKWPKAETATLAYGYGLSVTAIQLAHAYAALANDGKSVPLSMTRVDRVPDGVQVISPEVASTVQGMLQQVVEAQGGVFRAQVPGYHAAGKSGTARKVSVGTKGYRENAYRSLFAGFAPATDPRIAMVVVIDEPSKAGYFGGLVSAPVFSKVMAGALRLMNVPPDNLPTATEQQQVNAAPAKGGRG

Structure (SMILES) | MIC [1] [µg/mL] | MIC [2] [µg/mL] | MIC [3] [µg/mL] | IC50 [4] [µM] | MIC [5] [µg/mL] | MIC [6] [µg/mL] | MIC [7] [µg/mL] | EC50 [8] [µM]
N#Cc1cccc(C(=O)N[C@@H](C(=O)N[C@H]2Cc3cccc(C(=O)O)c3OB2O)c2ccc(P(=O)(O)O)cc2)n1 [Example 180, (R)-3-((R)-2-(6-cyanopicolinamido)-2-(4-phosphonophenyl)acetamido)-2-hydroxy-3,4-dihydro-2H-benzo[e][1,2]oxaborinine-8-carboxylic acid] | < 1 | < 1 | 1 to 2 (≈ 1.82 to 3.63 µM) | < 10 | 4 to 8 (≈ 7.27 to 14.5 µM) | < 1 | 8 to 16 (≈ 14.5 to 29.1 µM) | < 10
O=C(O)c1cccc2c1OB(O)[C@@H](NC(=O)[C@@H](NC(=O)c1cnc3sccn3c1=O)c1ccc(P(=O)(O)O)cc1)C2 (single isomer, unassigned) [Example 194] | 16 to 32 (≈ 26.7 to 53.5 µM) | 4 to 8 (≈ 6.69 to 13.4 µM) | 16 to 32 (≈ 26.7 to 53.5 µM) | < 10 | 16 to 32 (≈ 26.7 to 53.5 µM) | 4 to 8 (≈ 6.69 to 13.4 µM) | > 128 | 10 to 50
NS(=O)(=O)NC(C(=O)N[C@H]1Cc2cccc(C(=O)O)c2OB1O)c1ccc(P(=O)(O)O)cc1 (stereo partly drawn) [Example 58, (3R)-2-hydroxy-3-(2-(4-phosphonophenyl)-2-(sulfamoylamino)acetamido)-3,4-dihydro-2H-benzo[e][1,2]oxaborinine-8-carboxylic acid] | 16 to 32 (≈ 32.1 to 64.1 µM) | 16 to 32 (≈ 32.1 to 64.1 µM) | 16 to 32 (≈ 32.1 to 64.1 µM) | > 250 | 16 to 32 (≈ 32.1 to 64.1 µM) | 16 to 32 (≈ 32.1 to 64.1 µM) | > 128 | > 250
O=C(NC(C(=O)N[C@H]1Cc2cccc(C(=O)O)c2OB1O)c1ccc(P(=O)(O)O)cc1)c1ccccn1 (stereo partly drawn) [Example 32, (3R)-2-hydroxy-3-(2-(4-phosphonophenyl)-2-(picolinamido)acetamido)-3,4-dihydro-2H-benzo[e][1,2]oxaborinine-8-carboxylic acid] | 1 to 2 (≈ 1.9 to 3.81 µM) | 1 to 2 (≈ 1.9 to 3.81 µM) | 1 to 2 (≈ 1.9 to 3.81 µM) | < 10 | 16 to 32 (≈ 30.5 to 60.9 µM) | < 1 | 32 to 64 (≈ 60.9 to 122 µM) | 10 to 50
CC(C)(C)C(=O)NC(C(=O)N[C@H]1Cc2cccc(C(=O)O)c2OB1O)c1ccc(P(=O)(O)O)cc1 (stereo partly drawn) [Example 29, (3R)-2-hydroxy-3-(2-(4-phosphonophenyl)-2-pivalamidoacetamido)-3,4-dihydro-2H-benzo[e][1,2]oxaborinine-8-carboxylic acid] | 16 to 32 (≈ 31.7 to 63.5 µM) | 16 to 32 (≈ 31.7 to 63.5 µM) | 16 to 32 (≈ 31.7 to 63.5 µM) | 10 to 50 | 16 to 32 (≈ 31.7 to 63.5 µM) | 16 to 32 (≈ 31.7 to 63.5 µM) | > 128 | 50 to 250
CCN1CCN(C(=O)NC(C(=O)N[C@H]2Cc3cccc(C(=O)O)c3OB2O)c2cccc(CP(=O)(O)O)c2)C(=O)C1=O (stereo partly drawn) [Example 22, (3R)-3-(2-(4-ethyl-2,3-dioxopiperazine-1-carboxamido)-2-(3-(phosphonomethyl)phenyl)acetamido)-2-hydroxy-3,4-dihydro-2H-benzo[e][1,2]oxaborinine-8-carboxylic acid] | 1 to 2 (≈ 1.66 to 3.32 µM) | 1 to 2 (≈ 1.66 to 3.32 µM) | 1 to 2 (≈ 1.66 to 3.32 µM) | < 10 | 16 to 32 (≈ 26.6 to 53.1 µM) | < 1 | 8 to 16 (≈ 13.3 to 26.6 µM) | < 10
O=C(O)c1cccc2c1OB(O)[C@@H](NC(=O)[C@H](NC(=O)c1cccn(C(F)F)c1=O)c1ccc(P(=O)(O)O)cc1)C2 (single isomer, unassigned) [Example 191] | 1 to 2 (≈ 1.69 to 3.38 µM) | 1 to 2 (≈ 1.69 to 3.38 µM) | 1 to 2 (≈ 1.69 to 3.38 µM) | < 10 | 4 to 8 (≈ 6.77 to 13.5 µM) | < 1 | 32 to 64 (≈ 54.1 to 108 µM) | < 10
CC(=O)N1CCC[C@H]1C(=O)NC(C(=O)N[C@H]1Cc2cccc(C(=O)O)c2OB1O)c1ccc(P(=O)(O)O)cc1 (stereo partly drawn) [Example 65, (3R)-3-(2-((S)-1-acetylpyrrolidine-2-carboxamido)-2-(4-phosphonophenyl)acetamido)-2-hydroxy-3,4-dihydro-2H-benzo[e][1,2]oxaborinine-8-carboxylic acid] | 16 to 32 (≈ 28.6 to 57.2 µM) | 16 to 32 (≈ 28.6 to 57.2 µM) | 16 to 32 (≈ 28.6 to 57.2 µM) | 50 to 250 | 16 to 32 (≈ 28.6 to 57.2 µM) | 16 to 32 (≈ 28.6 to 57.2 µM) | > 128 | > 250
CN1CCCN(C(=O)NC(C(=O)N[C@H]2Cc3cccc(C(=O)O)c3OB2O)c2ccc(P(=O)(O)O)cc2)C1=O (stereo partly drawn) [Example 38, (3R)-2-hydroxy-3-(2-(3-methyl-2-oxohexahydropyrimidine-1-carboxamido)-2-(4-phosphonophenyl)acetamido)-3,4-dihydro-2H-benzo[e][1,2]oxaborinine-8-carboxylic acid] | 1 to 2 (≈ 1.78 to 3.57 µM) | 1 to 2 (≈ 1.78 to 3.57 µM) | 4 to 8 (≈ 7.14 to 14.3 µM) | < 10 | 16 to 32 (≈ 28.6 to 57.1 µM) | < 1 | 32 to 64 (≈ 57.1 to 114 µM) | 10 to 50
CCN1CCN(C(=O)NC(C(=O)N[C@H]2Cc3cccc(C(=O)O)c3OB2O)c2ccc(S(=O)(=O)O)cc2)C(=O)C1=O (stereo partly drawn) [Example 189, (3R)-3-(2-(4-ethyl-2,3-dioxopiperazine-1-carboxamido)-2-(4-sulfophenyl)acetamido)-2-hydroxy-3,4-dihydro-2H-benzo[e][1,2]oxaborinine-8-carboxylic acid] | 1 to 2 (≈ 1.7 to 3.4 µM) | < 1 | 1 to 2 (≈ 1.7 to 3.4 µM) | < 10 | 4 to 8 (≈ 6.8 to 13.6 µM) | < 1 | 8 to 16 (≈ 13.6 to 27.2 µM) | 10 to 50
O=C(O)c1cccc2c1OB(O)[C@@H](NC(=O)[C@H](NC(=O)N1CCNC1=O)c1ccc(P(=O)(O)O)cc1)C2 [Example 40, (R)-2-hydroxy-3-((R)-2-(2-oxoimidazolidine-1-carboxamido)-2-(4-phosphonophenyl)acetamido)-3,4-dihydro-2H-benzo[e][1,2]oxaborinine-8-carboxylic acid] | < 1 | < 1 | < 1 | < 10 | 1 to 2 (≈ 1.88 to 3.76 µM) | < 1 | 8 to 16 (≈ 15 to 30.1 µM) | < 10
O=C(O)c1cccc2c1OB(O)[C@@H](NC(=O)C(NC(=O)c1cnc[nH]c1=O)c1ccc(P(=O)(O)O)cc1)C2 (stereo partly drawn) [Example 176, (3R)-2-hydroxy-3-(2-(6-oxo-1,6-dihydropyrimidine-5-carboxamido)-2-(4-phosphonophenyl)acetamido)-3,4-dihydro-2H-benzo[e][1,2]oxaborinine-8-carboxylic acid] | 16 to 32 (≈ 29.5 to 59 µM) | 4 to 8 (≈ 7.38 to 14.8 µM) | 16 to 32 (≈ 29.5 to 59 µM) | < 10 | 16 to 32 (≈ 29.5 to 59 µM) | 4 to 8 (≈ 7.38 to 14.8 µM) | > 128 | 50 to 250
O=C(O)c1cccc2c1OB(O)[C@@H](NC(=O)[C@@H](NC(=O)c1cccn(C(F)F)c1=O)c1ccc(P(=O)(O)O)cc1)C2 (single isomer, unassigned) [Example 190] | 4 to 8 (≈ 6.77 to 13.5 µM) | 4 to 8 (≈ 6.77 to 13.5 µM) | 4 to 8 (≈ 6.77 to 13.5 µM) | < 10 | 16 to 32 (≈ 27.1 to 54.1 µM) | 1 to 2 (≈ 1.69 to 3.38 µM) | > 128 | 10 to 50
O=C(O)c1cccc2c1OB(O)[C@@H](NC(=O)C(NC(=O)[C@H]1CCCN1)c1ccc(P(=O)(O)O)cc1)C2 (stereo partly drawn) [Example 52, (3R)-2-hydroxy-3-(2-(4-phosphonophenyl)-2-((R)-pyrrolidine-2-carboxamido)acetamido)-3,4-dihydro-2H-benzo[e][1,2]oxaborinine-8-carboxylic acid] | 16 to 32 (≈ 30.9 to 61.9 µM) | 16 to 32 (≈ 30.9 to 61.9 µM) | 16 to 32 (≈ 30.9 to 61.9 µM) | 50 to 250 | 4 to 8 (≈ 7.73 to 15.5 µM) | 16 to 32 (≈ 30.9 to 61.9 µM) | 32 to 64 (≈ 61.9 to 124 µM) | > 250
O=C(NC(C(=O)N[C@H]1Cc2cccc(C(=O)O)c2OB1O)c1ccc(P(=O)(O)O)cc1)c1ccc(Cl)cn1 (stereo partly drawn) [Example 184, (3R)-3-(2-(5-chloropicolinamido)-2-(4-phosphonophenyl)acetamido)-2-hydroxy-3,4-dihydro-2H-benzo[e][1,2]oxaborinine-8-carboxylic acid] | < 1 | < 1 | 1 to 2 (≈ 1.79 to 3.57 µM) | < 10 | 4 to 8 (≈ 7.15 to 14.3 µM) | < 1 | 32 to 64 (≈ 57.2 to 114 µM) | < 10
CCN1CCN(C(=O)N[C@H](C(=O)N[C@H]2Cc3ccc(F)c(C(=O)O)c3OB2O)c2ccc(P(=O)(O)O)cc2)C(=O)C1=O (single isomer, unassigned) [Example 9] | < 1 | 1 to 2 (≈ 1.65 to 3.3 µM) | 1 to 2 (≈ 1.65 to 3.3 µM) | 10 to 50 | 4 to 8 (≈ 6.6 to 13.2 µM) | < 1 | > 128 | 50 to 250
Cn1cccc(C(=O)N[C@@H](C(=O)N[C@H]2Cc3cccc(C(=O)O)c3OB2O)c2ccc(P(=O)(O)O)cc2)c1=O (single isomer, unassigned) [Example 182] | 1 to 2 (≈ 1.8 to 3.6 µM) | 1 to 2 (≈ 1.8 to 3.6 µM) | 1 to 2 (≈ 1.8 to 3.6 µM) | < 10 | 16 to 32 (≈ 28.8 to 57.6 µM) | < 1 | 32 to 64 (≈ 57.6 to 115 µM) | < 10
